Measurements as given in patent US5030760A, “Tetrahydrophthalimides, and their production and use” (Sumitomo Chemical Company, Ltd., priority 1981, dated 1991).

Legend:
corn [1] = test: Test Example 4, pre-emergence treatment, phytotoxicity to corn; assay type: in vivo; settings: 20 days; also: ranges in brackets are in %
Method: (§1) The application of the tetrahydrophthalimides (I) as herbicides will be illustratively shown in the following Examples wherein the phytotoxicity to cultivated plants and the herbicidal activity on weeds were evaluated as follows: the aerial parts of the test plants were cut off and weighed (fresh weight); the percentage of the fresh weight of the treated plant to that of the untreated plant was calculated with the latter fresh weight taken as 100; and the crop damage and the herbicidal activity were evaluated by the standard given in the table below. The rating values of phytotoxicity, 0 and 1, and those of herbicidal effect, 5 and 4, are generally regarded as satisfactory to protect cultivated plants and control weeds, respectively. The rating values in the paddy field test alone were calculated from the dry weight of the test plants.
(§2) Plastic beakers (diameter, 10 cm; height, 10 cm) were filled with upland field soil, and the seeds of corn, cotton and soybean and the seeds of morningglory, velvetleaf, Johnsongrass and green foxtail were separately sown in the beakers. A designed amount of the test compound was sprayed over the top by means of a small hand sprayer. After the spraying, the test plants were grown for 20 days in the greenhouse, and herbicidal activity and phytotoxicity were examined. In this pre-emergence treatment, the test compounds were formulated into an emulsifiable concentrate according to Preparation Example 2 and applied at a spray volume of 5 liters per are by dispersing it in water with the addition of a spreading agent.

wild oat = test: Test Example 1, foliar treatment, herbicidal activity; assay type: in vivo, Avena fatua; settings: 3 weeks; also: ranges in brackets are in %
Method: as §1
(§3) Plastic beakers (diameter, 10 cm; height, 10 cm) were filled with upland field soil, and the seeds of corn, barnyardgrass, wild oat, wild mustard and velvetleaf were separately sown in the beakers and grown for 2 weeks in the greenhouse. A designed amount of the test compound was sprayed to the foliage of the test plants by means of a small hand sprayer. After the spraying, the test plants were further grown for 3 weeks in the greenhouse, and herbicidal activity was examined. In this foliar treatment, the test compounds were formulated into an emulsifiable concentrate according to Preparation Example 2 and applied at a spray volume of 5 liters per are by dispersing it in water with the addition of a spreading agent.

morningglory = test: Test Example 4, pre-emergence treatment, herbicidal activity; assay type: in vivo; settings: 10 g/are, 20 days; also: ranges in brackets are in %
Method: as §1, §2

jimsonweed = test: Test Example 5, spraying over the top, herbicidal activity; assay type: in vivo, Datura stramonium; settings: sprayed over the top, 20 days; also: ranges in brackets are in %
Method: as §1
(§4) Plastic trays (35 cm×25 cm×15 cm) were filled with upland field soil, and the seeds of tall morningglory, velvetleaf, jimsonweed, sicklepod, hemp sesbania, prickly side, Johnsongrass, green foxtail and large crabgrass and the seeds of soybean were sown therein. A designed amount of the test compound formulated into a wettable powder according to Preparation Example 1 and dispersed in water was sprayed over the top by means of a small hand sprayer at a spray volume of 5 liters per are. After the spraying, the test plants were grown in greenhouse for 20 days, and phytotoxicity and herbicidal activity were examined.

barnyardgrass [2] = test: Test Example 1, foliar treatment, herbicidal activity; assay type: in vivo, Echinochloa crus-galli; settings: 3 weeks; also: ranges in brackets are in %
Method: as §1, §3

sicklepod = test: Test Example 5, spraying over the top, herbicidal activity; assay type: in vivo, Cassia obtusifolia; settings: sprayed over the top, 20 days; also: ranges in brackets are in %
Method: as §1, §4

large crabgrass = test: as above; assay type: in vivo, Digitaria sanguinalis; settings: sprayed over the top, 20 days; also: ranges in brackets are in %
Method: as §1, §4

hemp sesbania = test: as above; assay type: in vivo, Sesbania exaltator; settings: sprayed over the top, 20 days; also: ranges in brackets are in %
Method: as §1, §4

green foxtail [3] = test: as above; assay type: in vivo, Setaria viridis; settings: sprayed over the top, 20 days
Method: as §1, §4

Johnsongrass [4] = test: as above; assay type: in vivo, Sorghum halepense; settings: sprayed over the top, 20 days
Method: as §1, §4

velvetleaf [5] = test: Test Example 4, pre-emergence treatment, herbicidal activity; assay type: in vivo, Abutilon theophrasti; settings: 20 days; also: ranges in brackets are in %
Method: as §1, §2

soybean [6] = test: Test Example 4, pre-emergence treatment, phytotoxicity to soybean; assay type: in vivo; settings: 20 days; also: ranges in brackets are in %
Method: as §1, §2

green foxtail [7] = test: Test Example 4, pre-emergence treatment, herbicidal activity; assay type: in vivo, Setaria viridis; settings: 20 days; also: ranges in brackets are in %
Method: as §1, §2

velvetleaf [8] = test: Test Example 1, foliar treatment, herbicidal activity; assay type: in vivo, Abutilon theophrasti; settings: 3 weeks; also: ranges in brackets are in %
Method: as §1, §3

cotton = test: Test Example 4, pre-emergence treatment, phytotoxicity to cotton; assay type: in vivo; settings: 2.5 g/are, 20 days; also: ranges in brackets are in %
Method: as §1, §2

corn [9] = test: Test Example 1, foliar treatment, phytotoxicity to corn; assay type: in vivo; settings: 3 weeks; also: ranges in brackets are in %
Method: as §1, §3

Johnsongrass [10] = test: Test Example 4, pre-emergence treatment, herbicidal activity; assay type: in vivo, Sorghum halepense; settings: 20 days; also: ranges in brackets are in %
Method: as §1, §2

soybean [11] = test: Test Example 5, spraying over the top, phytotoxicity to soybean; assay type: in vivo; settings: sprayed over the top, 20 days; also: ranges in brackets are in %
Method: as §1, §4

velvetleaf [12] = test: Test Example 5, spraying over the top, herbicidal activity; assay type: in vivo, Abutilon theophrasti; settings: sprayed over the top, 20 days; also: ranges in brackets are in %
Method: as §1, §4

wild mustard = test: Test Example 1, foliar treatment, herbicidal activity; assay type: in vivo, Brassica kaber; settings: 3 weeks
Method: as §1, §3

tall morningglory [13] = test: Test Example 5, spraying over the top, herbicidal activity; assay type: in vivo, Ipomoea purpurea; settings: sprayed over the top, 20 days; also: ranges in brackets are in %
Method: as §1, §4

prickly sida = test: as above; assay type: in vivo, Sida spinosa; settings: sprayed over the top, 20 days; also: ranges in brackets are in %
Method: as §1, §4

arrowhead = test: Test Example 7, flooded paddy pot dripping, herbicidal activity; assay type: in vivo, Sagittaria pygmaea; settings: 3 weeks; also: ranges in brackets are in %
Method: as §1
(§5) Wagner's pots (1/5000 are) were filled with paddy field soil and water was poured therein to make a flooded condition. Rice seedlings of the 3-leaf stage were transplanted and tubers of slender spikerush and arrowhead and the seeds of barnyardgrass, monochoria and broad-leaved weed were sowed therein and grown for 5 days. When germination occurs, a designed amount of the test compound formulated into an emulsifiable concentrate according to Preparation Example 2 was applied to the pots by dripping. The test plants were grown for a further 3 weeks, and herbicidal activity and phytotoxicity were examined. The herbicidal activity was evaluated in figures ranging from 0 to 5. The phytotoxicity to the crop plants was also indicated on the same standard as that of the herbicidal activity.

barnyardgrass [14] = test: as above; assay type: in vivo, Echinochloa crus-galli; settings: 3 weeks
Method: as §1, §5

corn [15] = test: Test Example 2, field foliar treatment, phytotoxicity to corn; assay type: in vivo; settings: 3 weeks; also: ranges in brackets are in %
Method: as §1
(§6) Seeds of corn and broad-leaved weeds such as cocklebur, common purslane and tall morningglory were sown in the field as previously laid up in ridges, each ridge having an upper width of 1 m. At the time when the corn grew up to the 6-leaf stage and the broad-leaved weeds up to 2 to 5-leaf stages, a designed amount of the test compound formulated into an emulsifiable concentrate according to Preparation Example 2 and dispersed in water was sprayed to the foliage of the test plants with three replications over the top by means of a small hand sprayer at a spray volume of 5 liters per are. After cultivation for 3 weeks, herbicidal activity and phytotoxicity were examined.

slender spikerush = test: Test Example 7, flooded paddy pot dripping, herbicidal activity; assay type: in vivo, Eleocharis acicularis; settings: 3 weeks; also: ranges in brackets are in %
Method: as §1, §5

cocklebur = test: Test Example 2, field foliar treatment, herbicidal activity; assay type: in vivo, Xanthium pennsylvanicum; settings: 3 weeks; also: ranges in brackets are in %
Method: as §1, §6

rice plant = test: Test Example 7, flooded paddy pot dripping, phytotoxicity to rice plant; assay type: in vivo; settings: 3 weeks; also: ranges in brackets are in %
Method: as §1, §5

monochoria = test: Test Example 7, flooded paddy pot dripping, herbicidal activity; assay type: in vivo, Monochoria vaginalis; settings: 3 weeks; also: ranges in brackets are in %
Method: as §1, §5

broad-leaved weed = test: as above; assay type: in vivo; settings: 3 weeks; also: ranges in brackets are in %
Method: as §1, §5

common purslane = test: Test Example 2, field foliar treatment, herbicidal activity; assay type: in vivo, Portulaca oleracea; settings: 3 weeks; also: ranges in brackets are in %
Method: as §1, §6

tall morningglory [16] = test: as above; assay type: in vivo, Ipomoea purpurea; settings: 3 weeks
Method: as §1, §6
For Herbicidal activity, Barnyardgrass in this document: ranges in brackets are in %.
For Herbicidal activity, Green foxtail in this document: ranges in brackets are in %.
For Herbicidal activity, Tall morningglory in this document: ranges in brackets are in %.

COc1cc(N2C(=O)C3=C(CCCC3)C2=O)c(F)cc1Br [Compound No. 12, N-(4-bromo-2-fluoro-5-methoxyphenyl)-3,4,5,6-tetrahydrophthalimide]
Phytotoxicity, Corn (corn [1]; 2.5 g/are): 0 (100) | Phytotoxicity, Corn (corn [1]; 10 g/are): 1 (90-99) | Herbicidal activity, Wild cat (wild oat; 1.25 g/are): 1 (41-60) | Herbicidal activity, Wild cat (wild oat; 5 g/are): 5 (0) | Herbicidal activity, Morningglory (morningglory): 5 (0) | Herbicidal activity, Jimsonweed (jimsonweed; 3 g/are): 5 (0) | Herbicidal activity, Jimsonweed (jimsonweed; 9 g/are): 5 (0) | Herbicidal activity, Barnyardgrass (barnyardgrass [2]; 1.25 g/are): 2 (21-40) | Herbicidal activity, Barnyardgrass (barnyardgrass [2]; 5 g/are): 5 (0) | Herbicidal activity, Sicklepod (sicklepod; 3 g/are): 4 (1-10) | Herbicidal activity, Sicklepod (sicklepod; 9 g/are): 5 (0) | Herbicidal activity, Large crabgrass (large crabgrass; 3 g/are): 5 (0) | Herbicidal activity, Large crabgrass (large crabgrass; 9 g/are): 5 (0) | Herbicidal activity, Hemp sesbania (hemp sesbania; 3 g/are): 4 (1-10) | Herbicidal activity, Hemp sesbania (hemp sesbania; 9 g/are): 5 (0) | Herbicidal activity, Green foxtail (green foxtail [3]; 3 g/are): 5 (0) | Herbicidal activity, Green foxtail (green foxtail [3]; 9 g/are): 5 (0) | Herbicidal activity, Johnsongrass (Johnsongrass [4]; 3 g/are): 5 (0) | Herbicidal activity, Johnsongrass (Johnsongrass [4]; 9 g/are): 5 (0) | Herbicidal activity, Velvetleaf (velvetleaf [5]; 2.5 g/are): 5 (0) | Herbicidal activity, Velvetleaf (velvetleaf [5]; 10 g/are): 5 (0) | Phytotoxicity, Soybean (soybean [6]; 2.5 g/are): 0 (100) | Phytotoxicity, Soybean (soybean [6]; 10 g/are): 0 (100) | Herbicidal activity, Green foxtail (green foxtail [7]; 2.5 g/are): 5 (0) | Herbicidal activity, Green foxtail (green foxtail [7]; 10 g/are): 5 (0) | Herbicidal activity, Velvetleaf (velvetleaf [8]; 1.25 g/are): 5 (0) | Herbicidal activity, Velvetleaf (velvetleaf [8]; 5 g/are): 5 (0) | Phytotoxicity, Cotton (cotton): 0 (100) | Phytotoxicity, Corn (corn [9]; 1.25 g/are): 1 (90-99) | Phytotoxicity, Corn (corn [9]; 5 g/are): 1 (90-99) | Herbicidal activity, Johnsongrass (Johnsongrass [10]; 2.5 g/are): 5 (0) | Herbicidal activity, Johnsongrass (Johnsongrass [10]; 10 g/are): 5 (0) | Phytotoxicity, Soybean (soybean [11]; 3 g/are): 0 (100) | Phytotoxicity, Soybean (soybean [11]; 9 g/are): 0 (100) | Herbicidal activity, Velvetleaf (velvetleaf [12]; 3 g/are): 5 (0) | Herbicidal activity, Velvetleaf (velvetleaf [12]; 9 g/are): 5 (0) | Herbicidal activity, Wild mustard (wild mustard; 1.25 g/are): 4 (1-10) | Herbicidal activity, Wild mustard (wild mustard; 5 g/are): 5 (0) | Herbicidal activity, Tall morningglory (tall morningglory [13]; 3 g/are): 4 (1-10) | Herbicidal activity, Tall morningglory (tall morningglory [13]; 9 g/are): 5 (0) | Herbicidal activity, Prickly sida (prickly sida; 3 g/are): 5 (0) | Herbicidal activity, Prickly sida (prickly sida; 9 g/are): 5 (0)

CCCCCOc1cc(N2C(=O)C3=C(CCCC3)C2=O)c(F)cc1Cl [Compound No. 7, N-(4-chloro-2-fluoro-5-n-amyloxyphenyl)-3,4,5,6-terahydrophthalimide]
Herbicidal activity, Allowhead (arrowhead; 1.25 g/are): 3 (50-69) | Herbicidal activity, Allowhead (arrowhead; 2.5 g/are): 4 (70-89) | Herbicidal activity, Allowhead (arrowhead; 5 g/are): 5 (90-100) | Herbicidal activity, Barnyardgrass (barnyardgrass [14]; 1.25 g/are): 4 (70-89) | Herbicidal activity, Barnyardgrass (barnyardgrass [14]; 2.5 g/are): 5 (90-100) | Herbicidal activity, Barnyardgrass (barnyardgrass [14]; 5 g/are): 5 (90-100) | Phytotoxicity, Corn (corn [15]; 0.16 g/are): 0 (100) | Phytotoxicity, Corn (corn [15]; 0.32 g/are): 0 (100) | Phytotoxicity, Corn (corn [15]; 0.63 g/are): 0 (100) | Herbicidal activity, Slender spikerush (slender spikerush; 1.25 g/are): 4 (70-89) | Herbicidal activity, Slender spikerush (slender spikerush; 2.5 g/are): 5 (90-100) | Herbicidal activity, Slender spikerush (slender spikerush; 5 g/are): 5 (90-100) | Herbicidal activity, Cocklebur (cocklebur; 0.16 g/are): 4 (1-10) | Herbicidal activity, Cocklebur (cocklebur; 0.32 g/are): 4 (1-10) | Herbicidal activity, Cocklebur (cocklebur; 0.63 g/are): 5 (0) | Phytotoxicity, Rice plant (rice plant; 1.25 g/are): 0 (0-9) | Phytotoxicity, Rice plant (rice plant; 2.5 g/are): 0 (0-9) | Phytotoxicity, Rice plant (rice plant; 5 g/are): 0 (0-9) | Herbicidal activity, Monochoria (monochoria; 1.25 g/are): 5 (90-100) | Herbicidal activity, Monochoria (monochoria; 2.5 g/are): 5 (90-100) | Herbicidal activity, Monochoria (monochoria; 5 g/are): 5 (90-100) | Herbicidal activity, Broad-leaved weed (broad-leaved weed; 1.25 g/are): 5 (90-100) | Herbicidal activity, Broad-leaved weed (broad-leaved weed; 2.5 g/are): 5 (90-100) | Herbicidal activity, Broad-leaved weed (broad-leaved weed; 5 g/are): 5 (90-100) | Herbicidal activity, Common purslane (common purslane; 0.16 g/are): 5 (0) | Herbicidal activity, Common purslane (common purslane; 0.32 g/are): 5 (0) | Herbicidal activity, Common purslane (common purslane; 0.63 g/are): 5 (0) | Herbicidal activity, Tall morningglory (tall morningglory [16]; 0.16 g/are): 2 (21-40) | Herbicidal activity, Tall morningglory (tall morningglory [16]; 0.32 g/are): 3 (11-20) | Herbicidal activity, Tall morningglory (tall morningglory [16]; 0.63 g/are): 4 (1-10)
